Test results published in PubChem BioAssay (NCI).
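Grown in 96-well plates, cells were treated for 48 hours with each compound at five concentrations. Insufficient inhibition: endpoint recorded as highest concentration tested. GI50 = concentration required for 50% inhibition of growth. TGI denotes the concentration required for complete inhibition of growth.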

Assays:
Assay in all cases: NCI-60 cell line screen, 48 h
786-0 renal = system: 786-0 renal
A498 renal = system: A498 renal
A549 NSCLC = system: A549 NSCLC
ACHN renal = system: ACHN renal
BT-549 breast = system: BT-549 breast
CAKI-1 renal = system: CAKI-1 renal
CCRF-CEM leukemia = system: CCRF-CEM leukemia
COLO 205 colon = system: COLO 205 colon
DU-145 prostate = system: DU-145 prostate
EKVX NSCLC = system: EKVX NSCLC
HCC-2998 colon = system: HCC-2998 colon
HCT-116 colon = system: HCT-116 colon
HCT-15 colon = system: HCT-15 colon
HL-60(TB) leukemia = system: HL-60(TB) leukemia
HOP-62 NSCLC = system: HOP-62 NSCLC
HOP-92 NSCLC = system: HOP-92 NSCLC
HT29 colon = system: HT29 colon
IGROV1 ovarian = system: IGROV1 ovarian
K-562 leukemia = system: K-562 leukemia
KM12 colon = system: KM12 colon
LOX IMVI melanoma = system: LOX IMVI melanoma
M14 melanoma = system: M14 melanoma
MALME-3M melanoma = system: MALME-3M melanoma
MCF7 breast = system: MCF7 breast
MDA-MB-231 breast = system: MDA-MB-231 breast
MDA-MB-435 = system: MDA-MB-435
MOLT-4 leukemia = system: MOLT-4 leukemia
NCI-H226 lung = system: NCI-H226 lung
NCI-H23 lung = system: NCI-H23 lung
NCI-H460 lung = system: NCI-H460 lung
NCI-H522 lung = system: NCI-H522 lung
NCI/ADR-RES ovarian = system: NCI/ADR-RES ovarian
OVCAR-3 ovarian = system: OVCAR-3 ovarian
OVCAR-4 ovarian = system: OVCAR-4 ovarian
OVCAR-5 ovarian = system: OVCAR-5 ovarian
OVCAR-8 ovarian = system: OVCAR-8 ovarian
PC-3 prostate = system: PC-3 prostate
RPMI-8226 leukemia = system: RPMI-8226 leukemia
RXF 393 renal = system: RXF 393 renal
SF-268 CNS = system: SF-268 CNS
SF-295 CNS = system: SF-295 CNS
SF-539 CNS = system: SF-539 CNS
SK-MEL-2 melanoma = system: SK-MEL-2 melanoma
SK-MEL-28 melanoma = system: SK-MEL-28 melanoma
SK-MEL-5 melanoma = system: SK-MEL-5 melanoma
SK-OV-3 ovarian = system: SK-OV-3 ovarian
SN12C renal = system: SN12C renal
SNB-19 CNS = system: SNB-19 CNS
SNB-75 CNS = system: SNB-75 CNS
SR leukemia = system: SR leukemia
SW-620 colon = system: SW-620 colon
T-47D breast = system: T-47D breast
TK-10 renal = system: TK-10 renal
U251 CNS = system: U251 CNS
UACC-257 melanoma = system: UACC-257 melanoma
UACC-62 melanoma = system: UACC-62 melanoma
UO-31 renal = system: UO-31 renal

COc1ccc([C@@H]2C(=O)N(c3cc(OC)c(OC)c(OC)c3)[C@H]2c2ccc(OC)c(O)c2)cc1 was tested, and the GI50 (786-0 renal) was 76.2 nM, the TGI (786-0 renal) was > 100000 nM and the GI50 (A498 renal) was 8560 nM. The TGI (A498 renal) was > 100000 nM, the GI50 (A549 NSCLC) was 43.8 nM and the TGI (A549 NSCLC) was > 100000 nM. For the same compound, the GI50 (ACHN renal) was 84.7 nM, the TGI (ACHN renal) was 32400 nM and the GI50 (BT-549 breast) was 55.5 nM. The TGI (BT-549 breast) was 3200 nM, the GI50 (CAKI-1 renal) was 68.1 nM and the TGI (CAKI-1 renal) was > 100000 nM. For the same compound, the GI50 (CCRF-CEM leukemia) was 35.6 nM, the TGI (CCRF-CEM leukemia) was > 100000 nM and the GI50 (COLO 205 colon) was 54.6 nM. For the same compound, the TGI (COLO 205 colon) was 205 nM, the GI50 (DU-145 prostate) was 59.6 nM and the TGI (DU-145 prostate) was > 100000 nM. For the same compound, the GI50 (EKVX NSCLC) was 49.8 nM, the TGI (EKVX NSCLC) was > 100000 nM and the GI50 (HCC-2998 colon) was 259 nM. The TGI (HCC-2998 colon) was 18500 nM, the GI50 (HCT-116 colon) was 35.3 nM and the TGI (HCT-116 colon) was > 100000 nM. For the same compound, the GI50 (HCT-15 colon) was 34.8 nM, the TGI (HCT-15 colon) was > 100000 nM and the GI50 (HL-60(TB) leukemia) was 21.4 nM. The TGI (HL-60(TB) leukemia) was 52.7 nM, the GI50 (HOP-62 NSCLC) was 41.1 nM and the TGI (HOP-62 NSCLC) was > 100000 nM. For the same compound, the GI50 (HOP-92 NSCLC) was 6020 nM, the TGI (HOP-92 NSCLC) was 48800 nM and the GI50 (HT29 colon) was 43.1 nM. The TGI (HT29 colon) was 11500 nM, the GI50 (IGROV1 ovarian) was 63 nM and the TGI (IGROV1 ovarian) was > 100000 nM. It also gave a GI50 (K-562 leukemia) of 30.6 nM, a TGI (K-562 leukemia) of 30500 nM and a GI50 (KM12 colon) of 45.9 nM. The TGI (KM12 colon) was > 100000 nM, the GI50 (LOX IMVI melanoma) was 37.6 nM and the TGI (LOX IMVI melanoma) was > 100000 nM. The GI50 (M14 melanoma) was 69.6 nM, the TGI (M14 melanoma) was 48100 nM and the GI50 (MALME-3M melanoma) was 61 nM. For the same compound, the TGI (MALME-3M melanoma) was 40800 nM, the GI50 (MCF7 breast) was 38.1 nM and the TGI (MCF7 breast) was > 100000 nM. The GI50 (MDA-MB-231 breast) was 36.7 nM, the TGI (MDA-MB-231 breast) was > 100000 nM and the GI50 (MDA-MB-435) was 30.1 nM. The TGI (MDA-MB-435) was > 100000 nM, the GI50 (MOLT-4 leukemia) was 38.2 nM and the TGI (MOLT-4 leukemia) was 31600 nM. It also gave a GI50 (NCI-H226 lung) of 36.2 nM, a TGI (NCI-H226 lung) of 37200 nM and a GI50 (NCI-H23 lung) of 47 nM. The TGI (NCI-H23 lung) was 44100 nM, the GI50 (NCI-H460 lung) was 36 nM and the TGI (NCI-H460 lung) was > 100000 nM. It also gave a GI50 (NCI-H522 lung) of 20.9 nM, a TGI (NCI-H522 lung) of 58 nM and a GI50 (NCI/ADR-RES ovarian) of 24 nM. It also gave a TGI (NCI/ADR-RES ovarian) of 59.8 nM, a GI50 (OVCAR-3 ovarian) of 40.8 nM and a TGI (OVCAR-3 ovarian) of 28900 nM. The GI50 (OVCAR-4 ovarian) was 3980 nM, the TGI (OVCAR-4 ovarian) was > 100000 nM and the GI50 (OVCAR-5 ovarian) was 49.8 nM. For the same compound, the TGI (OVCAR-5 ovarian) was > 100000 nM, the GI50 (OVCAR-8 ovarian) was 33.2 nM and the TGI (OVCAR-8 ovarian) was 27800 nM. For the same compound, the GI50 (PC-3 prostate) was 200 nM, the TGI (PC-3 prostate) was > 100000 nM and the GI50 (RPMI-8226 leukemia) was 49.2 nM. The TGI (RPMI-8226 leukemia) was 12000 nM, the GI50 (RXF 393 renal) was 41.7 nM and the TGI (RXF 393 renal) was 51100 nM. For the same compound, the GI50 (SF-268 CNS) was 300 nM, the TGI (SF-268 CNS) was > 100000 nM and the GI50 (SF-295 CNS) was 32.4 nM. The TGI (SF-295 CNS) was 18900 nM, the GI50 (SF-539 CNS) was 22.1 nM and the TGI (SF-539 CNS) was 56.7 nM. The GI50 (SK-MEL-2 melanoma) was 48.3 nM, the TGI (SK-MEL-2 melanoma) was > 100000 nM and the GI50 (SK-MEL-28 melanoma) was 13400 nM. The TGI (SK-MEL-28 melanoma) was > 100000 nM, the GI50 (SK-MEL-5 melanoma) was 35.4 nM and the TGI (SK-MEL-5 melanoma) was 161 nM. It also gave a GI50 (SK-OV-3 ovarian) of 32.5 nM, a TGI (SK-OV-3 ovarian) of 65200 nM and a GI50 (SN12C renal) of 41.3 nM. For the same compound, the TGI (SN12C renal) was > 100000 nM, the GI50 (SNB-19 CNS) was 284 nM and the TGI (SNB-19 CNS) was > 100000 nM. It also gave a GI50 (SNB-75 CNS) of 44.4 nM, a TGI (SNB-75 CNS) of 51700 nM and a GI50 (SR leukemia) of 31.6 nM. For the same compound, the TGI (SR leukemia) was 25700 nM, the GI50 (SW-620 colon) was 42.8 nM and the TGI (SW-620 colon) was > 100000 nM. The GI50 (T-47D breast) was 24300 nM, the TGI (T-47D breast) was > 100000 nM and the GI50 (TK-10 renal) was 15100 nM. The TGI (TK-10 renal) was > 100000 nM, the GI50 (U251 CNS) was 34 nM and the TGI (U251 CNS) was > 100000 nM. For the same compound, the GI50 (UACC-257 melanoma) was 13000 nM, the TGI (UACC-257 melanoma) was > 100000 nM and the GI50 (UACC-62 melanoma) was 82.5 nM. It also gave a TGI (UACC-62 melanoma) of 42300 nM, a GI50 (UO-31 renal) of 134 nM and a TGI (UO-31 renal) of 23700 nM.
